Patent publication US9822114B2, “Tricyclic oxazolidinone antibiotic compounds” (Idorsia Pharmaceuticals Ltd, priority 2008, dated 2017)

Tested on: M. catarrhalis A894
Experiment: Minimal inhibitory concentration (MIC), microdilution method in cation-adjusted Mueller-Hinton Broth (CLSI M7-A7)
Format: cell-based
Details: Moraxella catarrhalis, strain A894
Procedure: Minimal inhibitory concentrations (MICs; mg/1) were determined in cation-adjusted Mueller-Hinton Broth by a microdilution method following the description given in “Methods for Dilution Antimicrobial Susceptibility Tests for Bacteria that Grow Aerobically”, Approved standard, 7th ed., Clinical and Laboratory Standards Institute (CLSI) Document M7-A7, Wayne, Pa., USA, 2006.

Work on O=C1CSc2ccc(N3C[C@@H](CCCNCC4Cn5c(=O)ccc6ccc(F)c4c65)OC3=O)cc2N1 (mixture of isomers) [Example 51, (RS)-9-fluoro-1-({3-[(R)-2-oxo-3-(3-oxo-3,4-dihydro-2H-benzo[1,4]thiazin-6-yl)-oxazolidin-5-yl]-propylamino}-methyl)-1,2-dihydro-pyrrolo[3,2,1-ij]quinolin-4-one] yielded an MIC of at most 0.031 µg/mL.
Compound O=C1COc2ccc(N3C[C@@H](CCCNCC4Cn5c(=O)ccc6ccc(F)c4c65)OC3=O)cc2N1 (mixture of isomers) [Example 52, (RS)-9-fluoro-1-({3-[(R)-2-oxo-3-(3-oxo-3,4-dihydro-2H-benzo[1,4]oxazin-6-yl)-oxazolidin-5-yl]-propylamino}-methyl)-1,2-dihydro-pyrrolo[3,2,1-ij]quinolin-4-one] has an MIC of at most 0.031 µg/mL.
Work on O=C1CSc2ccc(N3C[C@H](CCNCC4Cn5c(=O)cnc6cccc4c65)OC3=O)cc2N1 (mixture of isomers) [Example 56, (RS)-6-({2-[(S)-2-oxo-3-(3-oxo-3,4-dihydro-2H-benzo[1,4]thiazin-6-yl)-oxazolidin-5-yl]-ethylamino}-methyl)-5,6-dihydro-pyrrolo[1,2,3-de]quinoxalin-3-one] yielded an MIC of at most 0.031 µg/mL.
Work on CCCc1ccc(N2C[C@@H](CCNC3Cn4c(=O)ccc5ccc(F)c3c54)OC2=O)cc1 (mixture of isomers) [Example 59, (RS)-9-fluoro-1-{2-[(R)-2-oxo-3-(4-propyl-phenyl)-oxazolidin-5-yl]-ethylamino}-1,2-dihydro-pyrrolo[3,2,1-ij]quinolin-4-one] yielded an MIC of 4 µg/mL.
In the case of O=C1O[C@@H](CCNCC2Cn3c(=O)ccc4ccc(F)c2c43)CN1c1ccc2c(c1)OCCO2 (mixture of isomers) [Example 60, (RS)-1-({2-[(S)-3-(2,3-dihydro-benzo[1,4]dioxin-6-yl)-2-oxo-oxazolidin-5-yl]-ethylamino}-methyl)-9-fluoro-1,2-dihydro-pyrrolo[3,2,1-ij]quinolin-4-one], the MIC was at most 0.031 µg/mL.
O=C1CSc2ccc(N3C[C@@H](CNCC4Cn5c(=O)ccc6cccc4c65)OC3=O)cc2N1 (mixture of isomers) [Example 63, (RS)-1-({[(R)-2-oxo-3-(3-oxo-3,4-dihydro-2H-benzo[1,4]thiazin-6-yl)-oxazolidin-5-ylmethyl]-amino}-methyl)-1,2-dihydro-pyrrolo[3,2,1-ij]quinolin-4-one] gave an MIC of 0.031 µg/mL.
For O=C1CSc2ccc(N3C[C@@H](CN(CCCO)CCC4Cn5c(=O)ccc6ccc(F)c4c65)OC3=O)cc2N1 (mixture of isomers) [Example 68, (RS)-9-fluoro-1-(2-{(3-hydroxy-propyl)-[(R)-2-oxo-3-(3-oxo-3,4-dihydro-2H-benzo[1,4]thiazin-6-yl)-oxazolidin-5-ylmethyl]-amino}-ethyl)-1,2-dihydro-pyrrolo[3,2,1-ij]quinolin-4-one], the MIC was at most 0.031 µg/mL.
O=C1CSc2ccc(N3C[C@@H](CN(CCO)CCC4Cn5c(=O)ccc6ccc(F)c4c65)OC3=O)cc2N1 (mixture of isomers) [Example 69, (RS)-9-fluoro-1-(2-{(2-hydroxy-ethyl)-[(R)-2-oxo-3-(3-oxo-3,4-dihydro-2H-benzo[1,4]thiazin-6-yl)-oxazolidin-5-ylmethyl]-amino}-ethyl)-1,2-dihydro-pyrrolo[3,2,1-ij]quinolin-4-one] was tested, and the MIC was at most 0.031 µg/mL.
O=C1COc2ccc(N3C[C@@H](CCCNC4Cn5c(=O)ccc6ccc(F)c4c65)OC3=O)nc2N1 (mixture of isomers) [Example 70, (RS)-9-fluoro-1-{3-[(R)-2-oxo-3-(3-oxo-3,4-dihydro-2H-pyrido[3,2-b][1,4]oxazin-6-yl)-oxazolidin-5-yl]-propylamino}-1,2-dihydro-pyrrolo[3,2,1-ij]quinolin-4-one] gave an MIC of at most 0.031 µg/mL.
O=C1CSc2ccc(N3C[C@H](CNCC4Cn5c(=O)ccc6cccc4c65)OC3=O)cc2N1 (mixture of isomers) [Example 81, (RS)-1-({[(S)-2-oxo-3-(3-oxo-3,4-dihydro-2H-benzo[1,4]thiazin-6-yl)-oxazolidin-5-ylmethyl]-amino}-methyl)-1,2-dihydro-pyrrolo[3,2,1-ij]quinolin-4-one] was tested, and the MIC was at most 0.031 µg/mL.
In the case of O=C1COc2ccc(N3C[C@@H](CNCC4Cn5c(=O)ccc6cccc4c65)OC3=O)cc2N1 (mixture of isomers) [Example 82, (RS)-1-({[(R)-2-oxo-3-(3-oxo-3,4-dihydro-2H-benzo[1,4]oxazin-6-yl)-oxazolidin-5-ylmethyl]-amino}-methyl)-1,2-dihydro-pyrrolo[3,2,1-ij]quinolin-4-one], the MIC was 0.25 µg/mL.
For O=C1CSc2ccc(N3C[C@H](CCNC4Cn5c(=O)ccc6ncc(F)c4c65)OC3=O)cc2N1 (mixture of isomers) [Example 84, (RS)-3-fluoro-4-{2-[(S)-2-oxo-3-(3-oxo-3,4-dihydro-2H-benzo[1,4]thiazin-6-yl)-oxazolidin-5-yl]-ethylamino}-4,5-dihydro-pyrrolo[3,2,1-de][1,5]naphthyridin-7-one], the MIC was 0.063 µg/mL.
O=C1CSc2ccc(N3C[C@H](CCN(CCCO)CC4Cn5c(=O)ccc6ccc(F)c4c65)OC3=O)cc2N1 (mixture of isomers) [Example 90, (RS)-9-fluoro-1-[((3-hydroxy-propyl)-{2-[(S)-2-oxo-3-(3-oxo-3,4-dihydro-2H-benzo[1,4]thiazin-6-yl)-oxazolidin-5-yl]-ethyl}-amino)-methyl]-1,2-dihydro-pyrrolo[3,2,1-ij]quinolin-4-one] gave an MIC of at most 0.031 µg/mL.
O=C1CSc2ccc(N3C[C@H](CCN(CCO)CC4Cn5c(=O)ccc6ccc(F)c4c65)OC3=O)cc2N1 (mixture of isomers) [Example 91, (RS)-9-fluoro-1-[((2-hydroxy-ethyl)-{2-[(S)-2-oxo-3-(3-oxo-3,4-dihydro-2H-benzo[1,4]thiazin-6-yl)-oxazolidin-5-yl]-ethyl}-amino)-methyl]-1,2-dihydro-pyrrolo[3,2,1-ij]quinolin-4-one] was tested, and the MIC was at most 0.031 µg/mL.
O=C1CSc2ccc(N3C[C@@H](CCCN(CCCO)C4Cn5c(=O)ccc6ccc(F)c4c65)OC3=O)cc2N1 (mixture of isomers) [Example 92, (RS)-9-fluoro-1-((3-hydroxy-propyl)-{3-[(R)-2-oxo-3-(3-oxo-3,4-dihydro-2H-benzo[1,4]thiazin-6-yl)-oxazolidin-5-yl]-propyl}-amino)-1,2-dihydro-pyrrolo[3,2,1-ij]quinolin-4-one] was tested, and the MIC was at most 0.031 µg/mL.
With O=C1CSc2ccc(N3C[C@@H](CCCN(CCO)C4Cn5c(=O)ccc6ccc(F)c4c65)OC3=O)cc2N1 (mixture of isomers) [Example 93, (RS)-9-fluoro-1-((2-hydroxy-ethyl)-{3-[(R)-2-oxo-3-(3-oxo-3,4-dihydro-2H-benzo[1,4]thiazin-6-yl)-oxazolidin-5-yl]-propyl}-amino)-1,2-dihydro-pyrrolo[3,2,1-ij]quinolin-4-one] the MIC was at most 0.031 µg/mL.
With O=C1CSc2ccc(N3C[C@@H](CCCNC4Cn5c(=O)ccc6ncc(F)c4c65)OC3=O)cc2N1 (mixture of isomers) [Example 94, (RS)-3-fluoro-4-{3-[(R)-2-oxo-3-(3-oxo-3,4-dihydro-2H-benzo[1,4]thiazin-6-yl)-oxazolidin-5-yl]-propylamino}-4,5-dihydro-pyrrolo[3,2,1-de][1,5]naphthyridin-7-one] the MIC was at most 0.031 µg/mL.
O=C1COc2ccc(N3C[C@@H](CCCNC4Cn5c(=O)ccc6ncc(F)c4c65)OC3=O)cc2N1 (mixture of isomers) [Example 95, (RS)-3-fluoro-4-{3-[(R)-2-oxo-3-(3-oxo-3,4-dihydro-2H-benzo[1,4]oxazin-6-yl)-oxazolidin-5-yl]-propylamino}-4,5-dihydro-pyrrolo[3,2,1-de][1,5]naphthyridin-7-one] was tested, and the MIC was at most 0.031 µg/mL.
O=C1CSc2ccc(N3C[C@H](CCCNC4Cn5c(=O)ccc6ncc(F)c4c65)OC3=O)cc2N1 (mixture of isomers) [Example 96, (RS)-3-fluoro-4-{3-[(S)-2-oxo-3-(3-oxo-3,4-dihydro-2H-benzo[1,4]thiazin-6-yl)-oxazolidin-5-yl]-propylamino}-4,5-dihydro-pyrrolo[3,2,1-de][1,5]naphthyridin-7-one] was tested, and the MIC was at most 0.031 µg/mL.
O=C1COc2ccc(N3C[C@H](CCCNC4Cn5c(=O)ccc6ncc(F)c4c65)OC3=O)cc2N1 (mixture of isomers) [Example 97, (RS)-3-fluoro-4-{3-[(S)-2-oxo-3-(3-oxo-3,4-dihydro-2H-benzo[1,4]oxazin-6-yl)-oxazolidin-5-yl]-propylamino}-4,5-dihydro-pyrrolo[3,2,1-de][1,5]naphthyridin-7-one] was tested, and the MIC was at most 0.031 µg/mL.
For O=C1COc2ccc(N3C[C@@H](CNCC4Cn5c(=O)ccc6ncc(F)c4c65)OC3=O)cc2N1 (mixture of isomers) [Example 98, (RS)-3-fluoro-4-({[(R)-2-oxo-3-(3-oxo-3,4-dihydro-2H-benzo[1,4]oxazin-6-yl)-oxazolidin-5-ylmethyl]-amino}-methyl)-4,5-dihydro-pyrrolo[3,2,1-de][1,5]naphthyridin-7-one], the MIC was 0.25 µg/mL.
O=C1CSc2ccc(N3C[C@H](CCNCC4Cn5c(=O)ccc6ncc(F)c4c65)OC3=O)cc2N1 (mixture of isomers) [Example 99, (RS)-3-fluoro-4-({2-[(S)-2-oxo-3-(3-oxo-3,4-dihydro-2H-benzo[1,4]thiazin-6-yl)-oxazolidin-5-yl]-ethylamino}-methyl)-4,5-dihydro-pyrrolo[3,2,1-de][1,5]naphthyridin-7-one] showed an MIC of at most 0.031 µg/mL.
Work on O=C1CSc2ccc(N3C[C@@H](CNCC4Cn5c(=O)ccc6ncc(F)c4c65)OC3=O)cc2N1 (mixture of isomers) [Example 100, (RS)-3-fluoro-4-({[(R)-2-oxo-3-(3-oxo-3,4-dihydro-2H-benzo[1,4]thiazin-6-yl)-oxazolidin-5-ylmethyl]-amino}-methyl)-4,5-dihydro-pyrrolo[3,2,1-de][1,5]naphthyridin-7-one] yielded an MIC of 0.031 µg/mL.
Compound O=C1CSc2ccc(N3C[C@H](CNCC4Cn5c(=O)ccc6ncc(F)c4c65)OC3=O)cc2N1 (mixture of isomers) [Example 101, (RS)-3-fluoro-4-({[(S)-2-oxo-3-(3-oxo-3,4-dihydro-2H-benzo[1,4]thiazin-6-yl)-oxazolidin-5-ylmethyl]-amino}-methyl)-4,5-dihydro-pyrrolo[3,2,1-de][1,5]naphthyridin-7-one] has an MIC of at most 0.031 µg/mL.
